This note sets out measurements from patent US20170204076A1, “SYNTHESIS AND USE OF AMINO LIPIDS” (INCELLA GMBH, priority 2014, published 2017).

Data set [1] deals with mouse embryonic fibroblast (MEF) cells. In words: Transfection of LRP6 siRNA in MEF cells, Western Blot of LRP6 protein. Type of data set: cell-based. The note with it: for siRNA mediated gene silencing compared with the commercial reagent A: LRP6 siRNA, MEF cells cultured for 24 hours, Western Blot; for ability to deliver siRNA molecules to cells: see FIGS. 5 and 6. As for the experimental part:
In order to screen for this two different types of cells were used to test the ability of our lipid reagents to deliver siRNA targeting Low density lipoprotein receptor related protein 6 (LRP6). This is a 200 kD single-pass transmembrane receptor for Wnt ligands and activates the Wnt/b-catenin signalling pathway. It is expressed at relatively high levels in MEF cells.
Assay: Transfection of siRNA in mouse embryonic fibroblast (MEF) cells
All steps performed in 0.2 ml PCR tubes and 96 well plate format. Amounts shown are for one well of a 96-well plate.
1. 0.25 μl lipid reagents diluted in 8 μl 50 mmol/l NaOAc buffer, pH 5.0. 2. Diluted lipid reagents from (1) added to 1 pmol (0.2 μl of 5 μmol/1) siRNA molecules in 8 μl NaOAc buffer, pH 5.0 and mixed with pipette action. The siRNA molecules used had either a scrambled sequence not specific for any known gene (Con siRNA), or a sequence specifically targeting the endogenous mRNA from the LRP6 gene (LRP6 siRNA). 3. After 30 min incubation at RT, added 50 μl freshly resuspended cells (2×10^4 cells/well DMEM culture medium supplemented with 10% fetal calf serum) in one well of a 96-well plate and placed in 37° C. incubator with 5% CO2. 4. 24 hours after initial transfection, cells, were lysed in 25 μl detergent buffer (50 mmol/l Tris, 1% Triton X-100, 0.15 mol/l NaCl, pH 7.0, containing protease and phosphatase inhibitors), spun to remove insoluble cell debris and […] clarified lysates added to 10 μl of 4× SDS loading buffer (250 mmol/l Tris HCl, 40% Glycerol, 8% SDS, 0.01% Bromophenol Blue, 5% 2-Mercaptoethanol, pH 6.8). 5. Samples were denatures by heating at 96° C. for 2 min and 12 μl loaded on a 9% SDS-PAGE gels for separation of proteins according to molecular weight. Separated proteins were transferred from the SDS-PAGE gel to nitrocellulose membrane for Western Blot (WB) analysis. 6. WB was performed using an automated BioLane HTI instrument using antibodies against LRP6 and α-tubublin proteins. HRP linked secondary antibodies and chemiluminescence were used to detect the proteins on the membrane.
FIGS. 5 and 6 show the Western Blot (WB) analysis of LRP6 protein from total lysates of MEF (mouse embryonic fibroblast) cells transfected with the indicated siRNA molecules and cultured for 24 hours.

The next data set deals with HEK 293 cells. In words: Primary screen of lipid reagents: plasmid DNA transfection, YFP fluorescence relative to total cell number (Hoechst). Type of data set: cell-based. To be noted: for cell toxicity: Hoechst stained apoptotic nuclei, microscope images; for transfection efficiency: HEK 293 cells, plasmid DNA (YFP), 20 to 24 hours after transfection. The source says:
Cell line: HEK 293 cells Screen format: 96-well Detection (read-out): YFP fluorescence relative to total cell number (total cell number assessed using the nuclear dye, Hoechst—see FIGS. 1 and 2)
A commercially available liposomal transfection reagent was used as a reference (reference reagent) according to manufacturers' instructions, see FIGS. 1 and 2.
All steps performed in 96 tube/plate format using 8- or 12-channel multi-pipettes. Amounts shown are for duplicate (2×) wells of a 96-well plate.
1. 0.8 μl lipid reagents diluted in 20 μl 50 mmol/l NaOAc buffer, pH 5.0. 2. Diluted lipid reagents from (1) were added to 150 ng DNA (25 ng pH2B-YFP+125 ng pCS-LacZ plasmids) in 20 μl NaOAc buffer, pH 5.0 and mixed with pipette action. 3. After 30 min incubation at RT, added 100 μl freshly resuspended cells (5×10^4 cells/well DMEM culture medium supplemented with 10% fetal calf serum) and mixed with pipette. 4. Duplicate 65 μl aliquots of the cells+lipid/DNA complexes were immediately transferred to separate wells of a 96-well culture plate and placed in 37° C. incubator with 5% CO2. 5. 20 to 24 hours after initial transfection of cells, Hoechst 33258 dye was added to cells at a final concentration of 0.2 μg/ml and cells incubated for a further 30 min at 37° C. Cells were then placed on an inverted microscope and 2 independent sets of images of the cells captured from each well as shown in FIGS. 1 and 2.
For each sample, 3 images were captured: bright field image of cells (FIGS. 1 and 2 upper panels), Hoechst dye stained image of total cell nuclei (FIGS. 1 and 2 middle panels) and YFP images showing cells successfully transfected with plasmid DNA and expressing YFP protein (FIGS. 1 and 2 lower panels). Microscope images of transfected HEK 293 cells, showing both the transfection efficiency and toxicity level of two of our lipid molecules (#30 and #60) compared to a commonly used commercial transfection reagent (reference reagent).

`CCCCCCCCCCCSCC(CNC(=O)NCCN(C)C)SCCCCCCCCCCC` (stereo not shown) [Example 24, 1-(2,3-bis(undecylthio)propyl)-3-(2-(dimethylamino)ethyl)urea]: in data set [1], the “siRNA mediated gene silencing compared with the commercial reagent A” value is given as “quite effective” and the “ability to deliver siRNA molecules to cells” value is given as “very efficiently deliver siRNA molecules to cells”. Moreover, the cell toxicity result with HEK 293 cells is “very low toxicity”.

For the compound `CCCCCCCCCCCSCC(CNC(=O)NCCCN(CC)CC)SCCCCCCCCCCC` (stereo not shown) [Example 30, 1-(2,3-bis(undecylthio)propyl)-3-(3-(diethylamino)propyl)urea], in the data set with HEK 293 cells, the transfection efficiency result is listed as “approximately 90%” and the cell toxicity result is reported as “low cell toxicity”.

On to `CCCCCCCCCCCCSCC(COCC(O)CNCCCN(CC)CC)SCCCCCCCCCCCC` (stereo not shown) [Example 60, 13-(dodecylthio)-3-ethyl-11-oxa-15-thia-3,7-diazaheptacosan-9-ol], for which, in the data set with HEK 293 cells, the transfection efficiency result is “approximately 90%” and the cell toxicity entry was “low cell toxicity”.

With `CCCCCCCCCCCSCC(COCC(O)CNCCN(CC)CC)SCCCCCCCCCCC` (stereo not shown) [Example 64, 3-ethyl-12-(undecylthio)-10-oxa-14-thia-3,6-diazapentacosan-8-ol], in data set [1], the “siRNA mediated gene silencing compared with the commercial reagent A” value is listed as “quite effective” and the “ability to deliver siRNA molecules to cells” value was “very efficiently deliver siRNA molecules to cells”. In the data set on HEK 293 cells, the cell toxicity entry is listed as “very low toxicity”.
